These results are taken from patent US7517526B2, “Enhancement of antibody-cytokine fusion protein mediated immune responses by combined treatment with immunocytokine uptake enhancing agents” (Merck Patent GmbH, priority 2000, dated 2009).

One series deals with P-glycoprotein (Homo sapiens, UniProt P08183). The note with it: cited from earlier work.
In series [1] the test system is multidrug resistant tumors. The conditions noted are these: cited from earlier work.
For series [2] the following is noted: cited from earlier work.
Another series relates to CT26/KSA cells. Briefly: Cytotoxicity assay (MTS, verified by crystal violet). The note with it: Mus musculus, CT26, 144 h; read-out: Paclitaxel IC50. Format: cell-based.
The subject of a further series is LLC/KSA cells. Described as above. In kind it is cell-based. The conditions noted are these: Mus musculus, 144 h; read-out: Paclitaxel IC50.
The test system of the next series is 4T1/KSA cells. Described as above. In kind it is cell-based. The note with it: Mus musculus, 144 h; read-out: Paclitaxel IC50.
For another series, the system named is LLC/KSA tumors. In kind it is in vivo. As for the experimental part: (§1) For tumor growth studies either LLC/KSA or CT26/KSA tumors were implanted subcutaneously on the backs of mice. For LLC/KSA studies, tumors were transplanted from several stock tumors that had been injected with a single cell suspension of 1×10^6 cells in 100 ul of PBS. After about two weeks, tumors were aseptically collected, passed through a sieve fitted with a 150 μm screen. Cells were then passed through a syringe and 23 gauge needle tow or three times, washed twice, and resuspended in PBS. A single cell suspension of 1×10^6 LLC/KSA cells in 100 ul of PBS was injected subcutaneously using a 30 ½ gauge needle on the backs of mice. For CT26/KSA studies, cells growing exponentially in culture were injected as a single cell suspension of 1×10^6 cells in 100 μl of PBS. After tumors had become established, about 2 weeks after implantation, dosing was initiated on Day 0. Tumors were measured with calipers in three dimensions twice weekly. Tumor volumes were calculated using the equation: Volume=½×4/3π(L/2×W/2×H) where L=length, W=width and H=height of the tumor. Animals were weighed and general health was monitored during the course of the study. When tumors became necrotic or if animals became moribund, the animals were euthanized by CO2 asphyxiation.
Data are presented in graphic form. Graphs depict individual or average tumor volumes (+/− SEM) during and after dosing. Data are also expressed as the percent of control of average tumor volumes from treated mice relative to vehicle treated mice. Student's t test was performed on the individual tumor volumes to determine significant differences.

For series [3], the system named is 4T1/KSA breast carcinoma cells. Briefly: Experimental lung metastasis model with 4T1/KSA cells. In kind it is in vivo, mouse. The conditions noted are these: for reduction of average lung weights: FIG. 4, combination with KS-IL2 15 μg/dose x 3 days given 4 hr after paclitaxel. As for the experimental part:
For experimental lung metastases studies, a single cell suspension of 2.5×10^5 4T1/KSA cells in 100 μl of PBS was slowly injected using a 27½ gauge needle into the lateral tail vein on Day 0. About 3 weeks-after inoculation animals were sacrificed; their lungs were removed and weighed. […] Data are presented in graphic form. Graphs depict average tumor burdens (+/− SEM) at time of sacrifice. Tumor burden was determined by subtracting the weight of a normal lung from the weight of the experimental lungs.
For this experiment we used an experimental lung metastasis model induced with 4T1/KSA breast carcinoma cells. The doses of the drugs were selected to be sub-optimal by themselves so that any potential additive or synergistic activity could be observed.

For series [4], the system named is CT26/KSA colon carcinoma skin tumors. Briefly: CT26/KSA established skin tumor growth assay. Format: in vivo, mouse. The conditions noted are these: paclitaxel single dose 75 mg/kg. The method, then:
as §1
Data are presented in graphic form. Graphs depict individual or average tumor volumes (+/− SEM) during and after dosing. […]

Series [5] relates to CT26/KSA liver metastases. The note with it: FIG. 6, combination: KS-IL2 7 ug for 5 days from one day later.
Protocol: For experimental hepatic metastases studies, mice were anesthetized using 80 mg/kg ketamine HCL (Fort Dodge Animal Health, Fort Dodge, Iowa) and 5 mg/kg xylazine (Bayer, Shawnee Mission, Kans.). A single cell suspension of 1×10^5 CT26/KSA cells in 100 μl of DMEM containing 25 mM HEPES (GIBCO) was injected using a 27½ gauge needle beneath the splenic capsule over a period of 60 seconds on Day 0. After another 2 minutes the splenic vessels were cauterized with a cautery unit (Roboz, Rockville, Md.) and the spleen removed. Animals were sutured using autoclips. Three weeks after inoculation the animals were sacrificed; their livers were removed and weighed. The livers were then fixed and stained in Bouin's solution (Sigma, St. Louis Mo.).
Graphs depict average tumor burdens (+/− SEM) at the time of sacrifice. Tumor burdens were determined by subtracting the weight of a normal liver from the weight of the experimental livers. Data are also expressed as the percent of control of the average tumor burden from treated mice relative to vehicle treated mice. Student's t test was performed on the individual tumor burdens to determine significant differences.
A second experiment was performed using the CT26/KSA model, this time testing the effect of combined therapy on established liver metastases and again using the 24 hr delay between paclitaxel administration and KS-IL2 treatment. We also compared the dose response of paclitaxel in the combination therapy. Mice were injected with 25, 50, or 75 mg/kg of paclitaxel on Day 5 after metastasis induction, alone or followed one day later with KS-IL2 (7 ug) for 5 days.
Series [6] relates to breast carcinoma subcutaneous tumors. Briefly: Tumor growth assay, established breast carcinoma subcutaneous tumors. In kind it is in vivo, mouse. The conditions noted are these: FIG. 9B; cyclophosphamide single dose 80 mg/kg; huKS-IL2 30 μg x 5 daily doses, 3 days after cyclophosphamide in combination; Day 25.
The subject of series [7] is lung carcinoma subcutaneous tumors. Briefly: Tumor growth assay, established lung carcinoma subcutaneous tumors. Format: in vivo, mouse. The note with it: FIG. 9C; cyclophosphamide single dose 80 mg/kg; huKS-IL2 20 μg x 5 daily doses, 3 days after cyclophosphamide in combination; Day 20.
Series [8] concerns 4T1 breast carcinoma cells. The conditions noted are these: FIG. 9; cyclophosphamide single dose 15 or 40 mg/kg; combination: huKS-IL2 15 ug/day for 5 days from three days later.
Protocol: 4T1 breast carcinoma cells were injected intravenously into immuno-competent mice to establish pulmonary metastases 3 days before treatment.
[9] abbreviates: comparative statement, Polizzi et al. 1999.
[10] abbreviates: FIG. 3, paclitaxel multiple doses 50 mg/kg every other day, combination: KS-IL2 one week following paclitaxel.

≈ marks a conversion by molar mass, not a printed value. Like-named read-outs stand apart in the source and are kept apart here.

Sequence of P-glycoprotein (P08183 whole entry): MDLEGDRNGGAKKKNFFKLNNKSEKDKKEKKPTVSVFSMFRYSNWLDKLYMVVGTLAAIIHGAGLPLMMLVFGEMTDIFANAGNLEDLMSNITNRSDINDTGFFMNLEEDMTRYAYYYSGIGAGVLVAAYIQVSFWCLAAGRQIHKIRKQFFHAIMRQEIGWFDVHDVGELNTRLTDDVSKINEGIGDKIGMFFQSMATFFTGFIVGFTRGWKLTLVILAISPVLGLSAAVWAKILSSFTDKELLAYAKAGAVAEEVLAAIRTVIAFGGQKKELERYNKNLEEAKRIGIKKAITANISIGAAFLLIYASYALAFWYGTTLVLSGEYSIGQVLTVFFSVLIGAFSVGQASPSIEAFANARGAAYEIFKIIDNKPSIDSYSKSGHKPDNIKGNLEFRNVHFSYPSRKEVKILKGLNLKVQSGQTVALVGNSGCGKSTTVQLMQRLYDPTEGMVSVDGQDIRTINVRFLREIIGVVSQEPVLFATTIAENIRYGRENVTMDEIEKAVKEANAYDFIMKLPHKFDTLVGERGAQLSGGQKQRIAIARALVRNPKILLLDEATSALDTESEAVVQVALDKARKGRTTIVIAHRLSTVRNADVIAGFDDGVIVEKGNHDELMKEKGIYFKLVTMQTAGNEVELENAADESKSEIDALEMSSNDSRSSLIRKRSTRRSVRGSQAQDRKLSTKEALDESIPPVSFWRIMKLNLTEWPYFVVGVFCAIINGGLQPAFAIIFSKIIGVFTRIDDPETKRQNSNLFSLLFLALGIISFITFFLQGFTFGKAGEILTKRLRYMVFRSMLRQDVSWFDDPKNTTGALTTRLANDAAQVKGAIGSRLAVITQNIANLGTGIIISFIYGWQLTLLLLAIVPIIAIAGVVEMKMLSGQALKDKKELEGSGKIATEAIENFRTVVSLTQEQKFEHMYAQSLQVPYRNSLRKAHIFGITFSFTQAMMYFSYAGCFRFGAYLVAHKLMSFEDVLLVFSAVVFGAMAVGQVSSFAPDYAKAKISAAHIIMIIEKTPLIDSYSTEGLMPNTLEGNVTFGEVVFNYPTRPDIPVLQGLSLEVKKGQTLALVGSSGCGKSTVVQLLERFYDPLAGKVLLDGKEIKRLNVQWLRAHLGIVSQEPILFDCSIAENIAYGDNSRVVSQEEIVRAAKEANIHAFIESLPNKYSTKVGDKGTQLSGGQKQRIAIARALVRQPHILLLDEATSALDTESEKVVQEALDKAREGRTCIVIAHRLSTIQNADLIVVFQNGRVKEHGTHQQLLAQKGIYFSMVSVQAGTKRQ
Protocol for CT26/KSA cells: (§2) The cell lines engineered for use in animal models (example 1) were tested for their sensitivity to taxane-induced cytotoxicity in cell culture in the presence or absence of the an IL-2 based immunocytokine consisting of the humanized form of the KS-1/4 antibody fused at the carboxyl terminus of the H chain to human IL-2 (huKS-huγ1-huIL2, hereafter abbreviated, KS-IL2). Cells were seeded at 1000 cell/well in 96 well flat-bottom plates and incubated for 24 hours at 37° C., 7% CO2. Paclitaxel, at 2-fold dilutions from 200 ng/ml to 3.125 ng/ml, KS-IL2, at 200 ng/ml and IL-2, at 33.3 ng/ml (the equivalent amount of IL-2 in KS-IL2) were added in duplicate to the cell culture plates and incubated for 6 days at 37° C., 7% CO2. The MTS calorimetric assay (Promega), a measure of cell viability based on the cellular conversion of a tetrazolium salt, was performed directly in the 96 well plates. After plates were read and recorded, viable adherent cells were stained with Crystal violet (Sigma, St. Louis, Mo). Crystal violet stained plates were used to verify MTS assay results. […] The IC50 is the concentration of drug that produced cytotoxicity at a level of 50% of control.
(§3) A cytotoxicity assay was performed with paclitaxel (3 to 200 ng/ml) alone or combined with KS-IL2 (200 ng/ml) or IL-2 (33.3 ng/ml, the equivalent amount of IL-2 in KS-IL2) against CT26/KSA, LLC/KSA and 4T1/KSA cells.
Protocol for LLC/KSA cells: as §2, §3

On to `CC(=O)O[C@H]1C(=O)[C@@]2(C)[C@H]([C@H](OC(=O)c3ccccc3)[C@]34OC(=O)O[C@H]3[C@H](OC(=O)[C@H](O)[C@H](CC(C)C)NC(=O)OC(C)(C)C)C(C)=C1C4(C)C)[C@]1(OC(C)=O)CO[C@@H]1C[C@@H]2O` [IDN5109], for which, on P-glycoprotein, the “substrate for P-glycoprotein” value was “poor substrate”. Further, the “activity against multidrug resistant tumors” value in series [1] is “generally more active”. In [2] (setting [9]), the neurotoxic side effects result is “less neurotoxic side effects” and the tolerated dose result is listed as “higher tolerated dose”. Besides, the oral bioavailability result in series [2] (in vivo, po) is listed as “orally bioavailable”.

As usually defined, the IC50 is the concentration that gives 50% inhibition. For `CC(=O)O[C@H]1C(=O)[C@@]2(C)[C@H]([C@H](OC(=O)c3ccccc3)[C@]3(O)C[C@H](OC(=O)[C@H](O)[C@@H](NC(=O)c4ccccc4)c4ccccc4)C(C)=C1C3(C)C)[C@]1(OC(C)=O)CO[C@@H]1C[C@@H]2O` [paclitaxel], the figures for the IC50 in the series on CT26/KSA cells, with LLC/KSA cells and in the series on 4T1/KSA cells were 0.027 µg/mL (≈ 0.0316 µM), 6 ng/mL (≈ 0.00703 µM) and 0.016 µg/mL (≈ 0.0187 µM), respectively. The “effect on tumor growth, agent given alone” value with LLC/KSA tumors (FIG. 2, paclitaxel single dose 80 mg/kg, KS-IL2 20 μg i.v. Days 0-4) is reported as “No effect”. The average tumor volume with LLC/KSA tumors (setting [10]) is given as 63 % of control. Also, in the series with LLC/KSA tumors (setting [10]), the “tumor growth delay (TGD)” value is reported as 4 days. Further, the “weight loss, comparison of groups” value in series [3] (25 mg/kg of paclitaxel given 3 times every other day) is listed as “greatest weight loss”. The “reduction of average lung weights” value in series [3] (paclitaxel multiple doses 25 mg/kg x 3 days) was determined as 49%; in series [3] (paclitaxel single dose 75 mg/kg) it was 43%. In [4] (Example 9, huKS-muγ2a-muIL12 5 μg per day for 5 days, starting 24 hr after paclitaxel in combination), the “effect on tumor growth” value is listed as “very little effect”. Moreover, the “effect on tumor growth, alone” value in series [4] (FIG. 5) is recorded as “no effect”. Besides, the tumor burden is 49 % of control in series [5] (paclitaxel 25 mg/kg on Day 5), 23 % of control in series [5] (paclitaxel 50 mg/kg on Day 5) and 10 % of control in series [5] (paclitaxel 75 mg/kg on Day 5).

Regarding `N.N.O=C([O-])C1(C(=O)[O-])CCC1.[Pt+2]` [Carboplatin], in the series with LLC/KSA tumors (FIG. 10, Carboplatin 75 mg/kg Day 0, KS-IL2 20 ug per day for 5 days, three days after Carboplatin in combination), the “effect on tumor growth / average tumor volume on Day 20” value was “modest decrease”.

With `O=P1(N(CCCl)CCCl)NCCCO1` (centres unmarked) [cyclophosphamide], the figures for the “reduction of average tumor volumes” value in series [6] and in [7] were 69% and 27%, respectively. The “lung metastasis tumor burden” value in series [8] was “modest reduction”.
